# Test results from US20060147400A1, “Composition, especially a cosmetic composition, containing at least one alkyl para-hydroxybenzoate and at least one lipophilic amino acid derivative” (L'Oreal, priority 2002, published 2006).
# Test: Solubility of alkyl para-hydroxybenzoates in a solubilizer/solvent (80° C., stirring one hour, dissolution monitored over time)
# Format: physicochemical
# Settings: comparative; same amount (60% by weight) in water, conventionally used solvent
# Procedure: Protocol: The alkyl para-hydroxybenzoates are weighed out and placed in a hermetic pill bottle. The required amount of lipophilic amino acid derivative (solubilizer) is added. The suspension is brought to 80° C. and stirred. by magnetic stirring for one hour. The dissolution or non-dissolution of the alkyl para-hydroxybenzoate and its change over time are then monitored. The insolubility of the alkyl para-hydroxybenzoate in the solubilizer is characterized macroscopically by a precipitate or just a cloudy solution, and microscopically by the presence of crystals.
smiles,measurement,value
CCCOC(=O)c1ccc(O)cc1 [propyl para-hydroxybenzoate],dissolution or non-dissolution in water,formation of insoluble crystals and a paste
